Tested on: Caco-2 monolayer, B->A permeability, LC-MS/MS
Test: Enhancers of SMN2 Splice Variant Expression: Caco-2 Permeability Profiling
Conditions: hits give high values
Description: Spinal muscular atrophy (SMA) is caused by insufficient levels of the survival motor neuron protein SMN. The SMN locus on chromosome 5q13 contains two inverted copies of SMN called SMN1 and SMN2 which are 99% identical at the amino acid level. SMN1 is a fully functional protein and SMN2 skips exon 7 90% of the time. Skipping of exon 7 produces non-functional protein product. 10% of the SMN2 protein includes exon 7 and is fully functional. In the SMA disease state, mutations in the SMN1 locus are the cause of the disease state. Because only 10% of SMN2 is of the fully functional form, it is not sufficient to overcome the deficiency produced by the loss of the SMN1 product. A therapy that either increase the amount of SMN2 product made or to increase the inclusion of exon 7 has been proposed for the treatment of SMA. After screening and medicinal chemistry efforts a probe was identified and is further characterized in this in vitro ADME assay. This Caco-2 permeability assay predicts the in vivo absorption of the lead across the intestinal lining by using a Caco-2 cell line and measuring the lead's rate of transport […]. […] NIH Chemical Genomics Center [NCGC] NIH Molecular Libraries Probe Production centers Network [MLPCN] […]
1. […] The T0, LY and T90, LY plates are read by FlexStation 3 at excitation of 485 nm and emission of 535 nm to determine LY permeability. […]

O=C(O)C1CCN(c2nc(-c3ccc(Br)cc3)cs2)CC1
Papp B->A: 12 10^-6 cm/s

Reference: PubChem BioAssay AID504778 (National Center for Advancing Translational Sciences (NCATS), 2011)
